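All cell lines were grown in 96-well plates and treated with compound for 48 hours. The concentration for 50% growth inhibition is given as GI50. TGI marks complete inhibition of growth.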
What was measured:
Assay in all cases: NCI-60 cell line screen, 48 h
[1] = test system: 786-0 renal
[2] = test system: A498 renal
[3] = test system: A549 NSCLC
[4] = test system: ACHN renal
[5] = test system: BT-549 breast
[6] = test system: CAKI-1 renal
[7] = test system: CCRF-CEM leukemia
[8] = test system: COLO 205 colon
[9] = test system: DU-145 prostate
[10] = test system: EKVX NSCLC
[11] = test system: HCC-2998 colon
[12] = test system: HCT-116 colon
[13] = test system: HCT-15 colon
[14] = test system: HL-60(TB) leukemia
[15] = test system: HOP-62 NSCLC
[16] = test system: HOP-92 NSCLC
[17] = test system: HS 578T breast
[18] = test system: HT29 colon
[19] = test system: IGROV1 ovarian
[20] = test system: K-562 leukemia
[21] = test system: KM12 colon
[22] = test system: LOX IMVI melanoma
[23] = test system: M14 melanoma
[24] = test system: MALME-3M melanoma
[25] = test system: MCF7 breast
[26] = test system: MDA-MB-231 breast
[27] = test system: MDA-MB-435
[28] = test system: MDA-MB-468 breast
[29] = test system: MOLT-4 leukemia
[30] = test system: NCI-H226 lung
[31] = test system: NCI-H23 lung
[32] = test system: NCI-H460 lung
[33] = test system: NCI-H522 lung
[34] = test system: NCI/ADR-RES ovarian
[35] = test system: OVCAR-3 ovarian
[36] = test system: OVCAR-4 ovarian
[37] = test system: OVCAR-5 ovarian
[38] = test system: OVCAR-8 ovarian
[39] = test system: PC-3 prostate
[40] = test system: RPMI-8226 leukemia
[41] = test system: RXF 393 renal
[42] = test system: SF-268 CNS
[43] = test system: SF-295 CNS
[44] = test system: SF-539 CNS
[45] = test system: SK-MEL-2 melanoma
[46] = test system: SK-MEL-28 melanoma
[47] = test system: SK-MEL-5 melanoma
[48] = test system: SK-OV-3 ovarian
[49] = test system: SN12C renal
[50] = test system: SNB-19 CNS
[51] = test system: SNB-75 CNS
[52] = test system: SR leukemia
[53] = test system: SW-620 colon
[54] = test system: T-47D breast
[55] = test system: TK-10 renal
[56] = test system: U251 CNS
[57] = test system: UACC-257 melanoma
[58] = test system: UACC-62 melanoma
[59] = test system: UO-31 renal

**Q.** How did the GI50 [1] turn out when `COc1cc2oc(-c3cccc(C(=O)Nc4ccc(Cl)cc4)c3)cc(=O)c2c(OCCNC(=O)[C@H](CO)NC(=O)OC(C)(C)C)c1OC` was run?
**A.** 19.7 µM

**Q.** And the TGI [1]?
**A.** > 100 µM

**Q.** And the GI50 [2]?
**A.** 27.2 µM

**Q.** And the TGI [2]?
**A.** 77.9 µM

**Q.** What about the GI50 [3] of the same compound?
**A.** 10.5 µM

**Q.** What about the TGI [3] of the same compound?
**A.** > 100 µM

**Q.** And the GI50 [4]?
**A.** 19.5 µM

**Q.** And the TGI [4]?
**A.** > 100 µM

**Q.** And the GI50 [5]?
**A.** 3.06 µM

**Q.** What about the TGI [5] of the same compound?
**A.** 19.9 µM

**Q.** And the GI50 [6]?
**A.** 5.8 µM

**Q.** What about the TGI [6] of the same compound?
**A.** > 100 µM

**Q.** What about the GI50 [7] of the same compound?
**A.** 5.54 µM

**Q.** What about the TGI [7] of the same compound?
**A.** > 100 µM

**Q.** And the GI50 [8]?
**A.** 7.16 µM

**Q.** And the TGI [8]?
**A.** 71.6 µM

**Q.** What about the GI50 [9] of the same compound?
**A.** 17.8 µM

**Q.** What about the TGI [9] of the same compound?
**A.** > 100 µM

**Q.** What about the GI50 [10] of the same compound?
**A.** 9.89 µM

**Q.** And the TGI [10]?
**A.** > 100 µM

**Q.** And the GI50 [11]?
**A.** 15.5 µM

**Q.** And the TGI [11]?
**A.** 74 µM

**Q.** And the GI50 [12]?
**A.** 6.03 µM

**Q.** What about the TGI [12] of the same compound?
**A.** > 100 µM

**Q.** And the GI50 [13]?
**A.** 7.43 µM

**Q.** What about the TGI [13] of the same compound?
**A.** > 100 µM

**Q.** And the GI50 [14]?
**A.** 5.41 µM

**Q.** And the TGI [14]?
**A.** 22.1 µM

**Q.** And the GI50 [15]?
**A.** 16.1 µM

**Q.** What about the TGI [15] of the same compound?
**A.** > 100 µM

**Q.** And the GI50 [16]?
**A.** 4.24 µM

**Q.** And the TGI [16]?
**A.** > 100 µM

**Q.** And the GI50 [17]?
**A.** 8.01 µM

**Q.** What about the TGI [17] of the same compound?
**A.** 94.6 µM

**Q.** And the GI50 [18]?
**A.** 6.92 µM

**Q.** And the TGI [18]?
**A.** 57.4 µM

**Q.** What about the GI50 [19] of the same compound?
**A.** 10.7 µM

**Q.** And the TGI [19]?
**A.** > 100 µM

**Q.** What about the GI50 [20] of the same compound?
**A.** 4.23 µM

**Q.** And the TGI [20]?
**A.** > 100 µM

**Q.** What about the GI50 [21] of the same compound?
**A.** 28.7 µM

**Q.** And the TGI [21]?
**A.** > 100 µM

**Q.** What about the GI50 [22] of the same compound?
**A.** 3.82 µM

**Q.** And the TGI [22]?
**A.** 20.7 µM

**Q.** What about the GI50 [23] of the same compound?
**A.** 8.53 µM

**Q.** What about the TGI [23] of the same compound?
**A.** 55.6 µM

**Q.** And the GI50 [24]?
**A.** 11 µM

**Q.** And the TGI [24]?
**A.** 51.5 µM

**Q.** What about the GI50 [25] of the same compound?
**A.** 10.1 µM

**Q.** What about the TGI [25] of the same compound?
**A.** > 100 µM

**Q.** What about the GI50 [26] of the same compound?
**A.** 4.7 µM

**Q.** And the TGI [26]?
**A.** 33.9 µM

**Q.** What about the GI50 [27] of the same compound?
**A.** 12.4 µM

**Q.** What about the TGI [27] of the same compound?
**A.** 42.6 µM

**Q.** What about the GI50 [28] of the same compound?
**A.** 13.9 µM

**Q.** And the TGI [28]?
**A.** 35 µM

**Q.** What about the GI50 [29] of the same compound?
**A.** 3.2 µM

**Q.** What about the TGI [29] of the same compound?
**A.** 21.8 µM

**Q.** And the GI50 [30]?
**A.** 13.8 µM

**Q.** What about the TGI [30] of the same compound?
**A.** > 100 µM

**Q.** What about the GI50 [31] of the same compound?
**A.** 14.9 µM

**Q.** And the TGI [31]?
**A.** > 100 µM

**Q.** What about the GI50 [32] of the same compound?
**A.** 6.48 µM

**Q.** And the TGI [32]?
**A.** > 100 µM

**Q.** And the GI50 [33]?
**A.** 5.18 µM

**Q.** And the TGI [33]?
**A.** > 100 µM

**Q.** What about the GI50 [34] of the same compound?
**A.** 51.4 µM

**Q.** And the TGI [34]?
**A.** > 100 µM

**Q.** What about the GI50 [35] of the same compound?
**A.** 10.8 µM

**Q.** What about the TGI [35] of the same compound?
**A.** > 100 µM

**Q.** And the GI50 [36]?
**A.** 9.86 µM

**Q.** And the TGI [36]?
**A.** > 100 µM

**Q.** What about the GI50 [37] of the same compound?
**A.** 8.01 µM

**Q.** And the TGI [37]?
**A.** > 100 µM

**Q.** What about the GI50 [38] of the same compound?
**A.** 5.78 µM

**Q.** And the TGI [38]?
**A.** > 100 µM

**Q.** And the GI50 [39]?
**A.** 6.82 µM

**Q.** And the TGI [39]?
**A.** > 100 µM

**Q.** What about the GI50 [40] of the same compound?
**A.** 2.85 µM

**Q.** What about the TGI [40] of the same compound?
**A.** > 100 µM

**Q.** What about the GI50 [41] of the same compound?
**A.** 4.2 µM

**Q.** What about the TGI [41] of the same compound?
**A.** 22 µM

**Q.** And the GI50 [42]?
**A.** 21.5 µM

**Q.** What about the TGI [42] of the same compound?
**A.** > 100 µM

**Q.** What about the GI50 [43] of the same compound?
**A.** 12.4 µM

**Q.** And the TGI [43]?
**A.** 53.2 µM

**Q.** And the GI50 [44]?
**A.** 12.1 µM

**Q.** What about the TGI [44] of the same compound?
**A.** 45 µM

**Q.** What about the GI50 [45] of the same compound?
**A.** 15.4 µM

**Q.** And the TGI [45]?
**A.** > 100 µM

**Q.** And the GI50 [46]?
**A.** 9.5 µM

**Q.** And the TGI [46]?
**A.** 28.2 µM

**Q.** And the GI50 [47]?
**A.** 5.48 µM

**Q.** What about the TGI [47] of the same compound?
**A.** 19.6 µM

**Q.** What about the GI50 [48] of the same compound?
**A.** 79.2 µM

**Q.** What about the TGI [48] of the same compound?
**A.** > 100 µM

**Q.** And the GI50 [49]?
**A.** 8.47 µM

**Q.** What about the TGI [49] of the same compound?
**A.** > 100 µM

**Q.** And the GI50 [50]?
**A.** 28.8 µM

**Q.** And the TGI [50]?
**A.** > 100 µM

**Q.** What about the GI50 [51] of the same compound?
**A.** 8.45 µM

**Q.** And the TGI [51]?
**A.** > 100 µM

**Q.** And the GI50 [52]?
**A.** 3.01 µM

**Q.** What about the TGI [52] of the same compound?
**A.** 18.2 µM

**Q.** And the GI50 [53]?
**A.** 30.1 µM

**Q.** And the TGI [53]?
**A.** > 100 µM

**Q.** What about the GI50 [54] of the same compound?
**A.** 5.63 µM

**Q.** And the TGI [54]?
**A.** > 100 µM

**Q.** And the GI50 [55]?
**A.** 19.9 µM

**Q.** And the TGI [55]?
**A.** > 100 µM

**Q.** What about the GI50 [56] of the same compound?
**A.** 17.8 µM

**Q.** And the TGI [56]?
**A.** > 100 µM

**Q.** And the GI50 [57]?
**A.** 12.6 µM

**Q.** And the TGI [57]?
**A.** 27.8 µM

**Q.** And the GI50 [58]?
**A.** 20.3 µM

**Q.** What about the TGI [58] of the same compound?
**A.** > 100 µM

**Q.** And the GI50 [59]?
**A.** 19.9 µM

**Q.** What about the TGI [59] of the same compound?
**A.** > 100 µM
